# Measured values published in the supplement of paper PMC10307832.
# How the values were obtained:
# Experiment in all cases: relative viability (nuclei count vs DMSO), 5 days (fraction); higher = more cells survive
# [1] = compound: CN(C)C/C=C/C(=O)Nc1cc2c(Nc3ccc(F)c(Cl)c3)ncnc2cc1O[C@H]1CCOC1 [Afatinib]
# Method in brief: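 Viability here means nuclei in treated wells divided by nuclei in vehicle wells, reported as the median across plates. Only plates with control CV below 25% and at least one doubling passed. Lung cancer cell lines in 1536-well plates were exposed to five √10-spaced library-drug doses for 5 days and counted from 4× Hoechst images in MetaXpress.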
# [2] = compound: CN(C)C/C=C/C(=O)Nc1cc2c(Nc3ccc(F)c(Cl)c3)ncnc2cc1O[C@H]1CCOC1 [Afatinib] + CC(C)C[C@H](NC(=O)[C@H](Cc1ccccc1)NC(=O)c1cnccn1)B(O)O [Bortezomib] (partner 0.002 µM)
# Method in brief: (§1)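 Relative viability was taken as the ratio of nuclei in treated wells to nuclei in vehicle wells. Lung cancer cell lines in 1536-well plates received compounds by pin tool one day after seeding, either one drug alone or a fixed anchor-drug dose plus five library-drug doses (not always all listed) in √10 steps. Nuclei were counted on 4× images after 5 days of treatment, and values are medians of duplicate plates.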
# [3] = compound: CN(C)C/C=C/C(=O)Nc1cc2c(Nc3ccc(F)c(Cl)c3)ncnc2cc1O[C@H]1CCOC1 [Afatinib] + O=C(c1cc(Cc2n[nH]c(=O)c3ccccc23)ccc1F)N1CCN(C(=O)C2CC2)CC1 [Olaparib] (partner 8 µM)
# Method in brief: as §1
# [4] = compound: CN(C)C/C=C/C(=O)Nc1cc2c(Nc3ccc(F)c(Cl)c3)ncnc2cc1O[C@H]1CCOC1 [Afatinib] + CS(=O)(=O)CCNCc1ccc(-c2ccc3ncnc(Nc4ccc(OCc5cccc(F)c5)c(Cl)c4)c3c2)o1 [Lapatinib] (partner 2 µM)
# Method in brief: as §1
# [5] = compound: CN(C)C/C=C/C(=O)Nc1cc2c(Nc3ccc(F)c(Cl)c3)ncnc2cc1O[C@H]1CCOC1 [Afatinib] + COc1cc2c(Oc3ccc(NC(=O)C4(C(=O)Nc5ccc(F)cc5)CC4)cc3F)ccnc2cc1OCCCN1CCOCC1 [Foretinib] (partner 0.25 µM)
# Method in brief: as §1
# [6] = compound: CN(C)C/C=C/C(=O)Nc1cc2c(Nc3ccc(F)c(Cl)c3)ncnc2cc1O[C@H]1CCOC1 [Afatinib] + C[C@@H](Oc1cc(-c2cnn(C3CCNCC3)c2)cnc1N)c1c(Cl)ccc(F)c1Cl [Crizotinib] (partner 1 µM)
# Method in brief: as §1
# [7] = compound: CN(C)C/C=C/C(=O)Nc1cc2c(Nc3ccc(F)c(Cl)c3)ncnc2cc1O[C@H]1CCOC1 [Afatinib] + CC1(C)CCC(c2ccc(Cl)cc2)=C(CN2CCN(c3ccc(C(=O)NS(=O)(=O)c4ccc(N[C@H](CCN5CCOCC5)CSc5ccccc5)c(S(=O)(=O)C(F)(F)F)c4)cc3)CC2)C1 [Navitoclax] (partner 0.5 µM)
# Method in brief: as §1
# [8] = compound: CN(C)C/C=C/C(=O)Nc1cc2c(Nc3ccc(F)c(Cl)c3)ncnc2cc1O[C@H]1CCOC1 [Afatinib] + C[C@]1(O)C[C@@H](c2nc(-c3ccc4ccc(-c5ccccc5)nc4c3)c3c(N)nccn32)C1 [Linsitinib] (partner 1 µM)
# Method in brief: as §1
# [9] = compound: CN(C)C/C=C/C(=O)Nc1cc2c(Nc3ccc(F)c(Cl)c3)ncnc2cc1O[C@H]1CCOC1 [Afatinib] + Cc1nc(NC(=O)N2CCC[C@H]2C(N)=O)sc1-c1ccnc(C(C)(C)C(F)(F)F)c1 [Alpelisib] (partner 2 µM)
# Method in brief: as §1
# [10] = compound: CN(C)C/C=C/C(=O)Nc1cc2c(Nc3ccc(F)c(Cl)c3)ncnc2cc1O[C@H]1CCOC1 [Afatinib] + CS(=O)(=O)N1CCN(Cc2cc3nc(-c4cccc5[nH]ncc45)nc(N4CCOCC4)c3s2)CC1 [Pictilisib] (partner 1 µM)
# Method in brief: as §1
# [11] = compound: CN(C)C/C=C/C(=O)Nc1cc2c(Nc3ccc(F)c(Cl)c3)ncnc2cc1O[C@H]1CCOC1 [Afatinib] + N=C(N)NC(=N)NCCc1ccccc1 [Phenformin] (partner 250 µM)
# Method in brief: as §1
# [12] = compound: CN(C)C/C=C/C(=O)Nc1cc2c(Nc3ccc(F)c(Cl)c3)ncnc2cc1O[C@H]1CCOC1 [Afatinib] + Nc1ncn([C@H]2C[C@H](O)[C@@H](CO)O2)c(=O)n1 [Decitabine] (partner 2 µM)
# Method in brief: as §1
cell line,measurement,setting,value
Calu-6,relative viability,[1]; 0.005 µM,1.09
same,relative viability,[1]; 0.01581 µM,1
same,relative viability,[1]; 0.05 µM,1.02
same,relative viability,[1]; 0.1581 µM,0.997
same,relative viability,[1]; 0.5 µM,0.986
same,relative viability,[2]; first compound 0.005 µM,1.15
same,relative viability,[2]; first compound 0.01581 µM,0.97
same,relative viability,[2]; first compound 0.05 µM,1.13
same,relative viability,[2]; first compound 0.1581 µM,1
same,relative viability,[2]; first compound 0.5 µM,1.08
same,relative viability,[3]; first compound 0.005 µM,0.565
same,relative viability,[3]; first compound 0.01581 µM,0.565
same,relative viability,[3]; first compound 0.05 µM,0.607
same,relative viability,[3]; first compound 0.1581 µM,0.573
same,relative viability,[3]; first compound 0.5 µM,0.545
same,relative viability,[4]; first compound 0.005 µM,1.15
same,relative viability,[4]; first compound 0.01581 µM,1.12
same,relative viability,[4]; first compound 0.05 µM,1.08
same,relative viability,[4]; first compound 0.1581 µM,1.09
same,relative viability,[4]; first compound 0.5 µM,1.12
same,relative viability,[5]; first compound 0.005 µM,0.913
same,relative viability,[5]; first compound 0.01581 µM,0.975
same,relative viability,[5]; first compound 0.05 µM,0.882
same,relative viability,[5]; first compound 0.1581 µM,0.88
same,relative viability,[5]; first compound 0.5 µM,0.93
same,relative viability,[6]; first compound 0.005 µM,0.861
same,relative viability,[6]; first compound 0.01581 µM,0.654
same,relative viability,[6]; first compound 0.05 µM,0.869
same,relative viability,[6]; first compound 0.1581 µM,0.8
same,relative viability,[6]; first compound 0.5 µM,0.755
same,relative viability,[7]; first compound 0.005 µM,0.836
same,relative viability,[7]; first compound 0.01581 µM,0.786
same,relative viability,[7]; first compound 0.05 µM,0.831
same,relative viability,[7]; first compound 0.1581 µM,0.914
same,relative viability,[7]; first compound 0.5 µM,0.81
same,relative viability,[8]; first compound 0.005 µM,0.858
same,relative viability,[8]; first compound 0.01581 µM,0.876
same,relative viability,[8]; first compound 0.05 µM,1.06
same,relative viability,[8]; first compound 0.1581 µM,0.933
same,relative viability,[8]; first compound 0.5 µM,0.891
same,relative viability,[9]; first compound 0.005 µM,1.05
same,relative viability,[9]; first compound 0.01581 µM,0.922
same,relative viability,[9]; first compound 0.05 µM,1.03
same,relative viability,[9]; first compound 0.1581 µM,1.01
same,relative viability,[9]; first compound 0.5 µM,0.88
same,relative viability,[10]; first compound 0.005 µM,0.999
same,relative viability,[10]; first compound 0.01581 µM,0.941
same,relative viability,[10]; first compound 0.05 µM,1.01
same,relative viability,[10]; first compound 0.1581 µM,0.964
same,relative viability,[10]; first compound 0.5 µM,0.989
A549,relative viability,[1]; 0.005 µM,0.969
same,relative viability,[1]; 0.01581 µM,1
same,relative viability,[1]; 0.05 µM,0.938
same,relative viability,[1]; 0.1581 µM,0.867
same,relative viability,[1]; 0.5 µM,0.858
same,relative viability,[3]; first compound 0.005 µM,0.321
same,relative viability,[3]; first compound 0.01581 µM,0.451
same,relative viability,[3]; first compound 0.05 µM,0.359
same,relative viability,[3]; first compound 0.1581 µM,0.304
same,relative viability,[3]; first compound 0.5 µM,0.375
same,relative viability,[4]; first compound 0.005 µM,0.974
same,relative viability,[4]; first compound 0.01581 µM,0.979
same,relative viability,[4]; first compound 0.05 µM,1.01
same,relative viability,[4]; first compound 0.1581 µM,0.893
same,relative viability,[4]; first compound 0.5 µM,0.997
same,relative viability,[5]; first compound 0.005 µM,0.826
same,relative viability,[5]; first compound 0.01581 µM,0.835
same,relative viability,[5]; first compound 0.05 µM,0.781
same,relative viability,[5]; first compound 0.1581 µM,0.806
same,relative viability,[5]; first compound 0.5 µM,0.861
same,relative viability,[6]; first compound 0.005 µM,0.995
same,relative viability,[6]; first compound 0.01581 µM,0.655
same,relative viability,[6]; first compound 0.05 µM,0.712
same,relative viability,[6]; first compound 0.1581 µM,0.695
same,relative viability,[6]; first compound 0.5 µM,0.796
same,relative viability,[11]; first compound 0.005 µM,0.152
same,relative viability,[11]; first compound 0.01581 µM,0.154
same,relative viability,[11]; first compound 0.05 µM,0.192
same,relative viability,[11]; first compound 0.1581 µM,0.162
same,relative viability,[11]; first compound 0.5 µM,0.15
same,relative viability,[7]; first compound 0.005 µM,1.3
same,relative viability,[7]; first compound 0.01581 µM,1.11
same,relative viability,[7]; first compound 0.05 µM,1.2
same,relative viability,[7]; first compound 0.1581 µM,1.09
same,relative viability,[7]; first compound 0.5 µM,1.16
same,relative viability,[8]; first compound 0.005 µM,0.608
same,relative viability,[8]; first compound 0.01581 µM,0.435
same,relative viability,[8]; first compound 0.05 µM,0.533
same,relative viability,[8]; first compound 0.1581 µM,0.433
same,relative viability,[8]; first compound 0.5 µM,0.467
same,relative viability,[12]; first compound 0.005 µM,0.28
same,relative viability,[12]; first compound 0.01581 µM,0.272
same,relative viability,[12]; first compound 0.05 µM,0.278
same,relative viability,[12]; first compound 0.1581 µM,0.232
same,relative viability,[12]; first compound 0.5 µM,0.299
same,relative viability,[9]; first compound 0.005 µM,0.629
same,relative viability,[9]; first compound 0.01581 µM,0.632
same,relative viability,[9]; first compound 0.05 µM,0.631
same,relative viability,[9]; first compound 0.1581 µM,0.61
same,relative viability,[9]; first compound 0.5 µM,0.642
same,relative viability,[10]; first compound 0.005 µM,0.499
same,relative viability,[10]; first compound 0.01581 µM,0.416
same,relative viability,[10]; first compound 0.05 µM,0.478
same,relative viability,[10]; first compound 0.1581 µM,0.389
same,relative viability,[10]; first compound 0.5 µM,0.442
